Laboratory results taken from patent US9681658B2, “Penetrants for agrochemical formulations” (CRODA INTERNATIONAL PLC, priority 2012, dated 2017).

Tested on: Isolated cuticles from apple leaves (Malus domestica cv. 'Golden Delicious')
Assay: Leaf penetration (Franz cell diffusion of Imidacloprid through isolated cuticles)
Format: in vitro ADME
Conditions: active alone without penetrant
Description: The following test method was used to assess leaf penetration properties of the synthesised ethoxylated polyol alkoxylates P1 to P18.
Franz cells were set up containing: • Receptor solution: 10 mM sodium phosphate buffer pH 6.0 containing 0.1 mM sodium azide • Donor solution: unformulated pesticide containing 0.5 g/l of Imidacloprid (N-[1-[(6-Chloro-3-pyridyl)methyl]-4,5-dihydroimidazol-2-yl]nitramide) and 2.5 g/l of penetrant, in 5 mM lactic acid (pre-buffered with KOH), preserved with 0.5 mM sodium azide, (+/−0.25% w/v), i.e. 2.5 g/l donor).
The Franz cell experiments were used for diffusion experiments. Isolated cuticles from apple leaves (Malus domestica cv. ‘Golden Delicious’) were prepared based on the method detailed in US 2009/0247597. The donor compartment was removed to aid deposit formation. Experiments were performed at a controlled temperature of 20° C., and a controlled relative humidity of 58%. A calibration was carried out (0-100% penetration) obtaining the concentration of Imidacloprid in the receiver solution removed from the Franz Cell.
HPLC-UV was used to assay imidacloprid concentration using an Agilent 1260 Quaternary LC system. Each penetrant was tested for leaf penetration properties, with a total of 18 Franz cells used for percentage penetration determination. A calibration was carried out before each set of samples was analysed. […]

With `O=[N+]([O-])NC1=NCCN1Cc1ccc(Cl)nc1` [Imidacloprid, N-[1-[(6-Chloro-3-pyridyl)methyl]-4,5-dihydroimidazol-2-yl]nitramide] the “% penetration after 72 hours” value was 1.7%.
